The record followed here is US20140350050A1, “PYRIDINE COMPOUNDS AS INHIBITORS OF KINASE” (TELIGENE LTD., priority 2011, published 2014).

Usually IC50 stands for the concentration needed to halve the response being measured. By AUC(0-inf) is commonly meant total exposure, with the tail of the curve extrapolated. What is called AUC(0-t) is the area under the concentration-time curve up to a stated or last time point. Low readings indicate low exposure, high ones high exposure. In general, Cmax refers to the peak of the concentration-time curve. As usually defined, the MRT is the average time that molecules of a dose stay in the body. The term Tmax denotes the time at which the peak concentration occurs. Broadly, the clearance is the volume of plasma or blood freed of the substance per unit of time. A low value points to a low capacity for elimination. As a reminder, the half-life is how long it takes for the measured level to halve. A high value points to slow decline. In general, bioavailability refers to dose-corrected exposure relative to a reference, in per cent.

Molecules are shown by their SMILES. Where two headings read alike, the source gives them in different places.

One series addresses ALK kinase (Homo sapiens, UniProt Q9UM73). As to the kind of experiment: ALK kinase assay. It counts as biochemical. The procedure:
An in vitro assay which determines the ability of a test compound to inhibit ALK kinase. a) kinase-tagged T7 phage strains were prepared in an E. coli host derived from the BL21 strain. E. coli were grown to log-phase and infected with T7 phage and incubated with shaking at 32° C. until lysis. The lysates were centrifuged and filtered to remove cell debris. The remaining kinases were produced in HEK-293 cells and subsequently tagged with DNA for qPCR detection. […] The liganded beads were blocked with excess biotin and washed with blocking buffer (SeaBlock (Pierce), 1% BSA, 0.05% Tween 20, 1 mM DTT) to remove unbound ligand and to reduce non-specific binding. […] All reactions were performed in polystyrene 96-well plates in a final volume of 0.135 ml. […] The kinase concentration in the eluates was measured by qPCR. […]
b) An alternative method to conduct the kinase assay with the following condition and procedure: Reagent: Base Reaction buffer; 20 mM Hepes (pH 7.5), 10 mM MgCl2, 1 mM EGTA, 0.02% Brij35, 0.02 mg/ml BSA, 0.1 mM Na3VO4, 2 mM DTT, 1% DMSO.
1. Preparing indicated substrate in freshly prepared Base Reaction Buffer
2. Delivering any required cofactors to the substrate solution above
3. Delivering indicated kinase into the substrate solution and gently mix
4. Delivering compounds in DMSO into the kinase reaction mixture
5. Delivering ^33P-ATP (specific activity 0.01 μCi/μl final) into the reaction mixture to initiate the reaction.
6. Incubating kinase reaction for 120 min. at room temperature
7. Reactions are spotted onto P81 ion exchange paper (Whatman #3698-915)
8. Washing filters extensively in 0.75% Phosphoric acid. […]
c) An alternative method to conduct the kinase assay with the following condition and procedure: The assay was performed using Kinase-Glo Plus luminescence kinase assay kit (Promega). It measures kinase activity by quantitating the amount of ATP remaining in solution following a kinase reaction. The luminescent signal from the assay is correlated with the amount of ATP present and is inversely correlated with the amount of kinase activity.
The compound were diluted in 10% DMSO and 5 μl of the dilution was added to a 50 μl reaction so that the final concentration of DMSO is 1% in all of reactions. All of the enzymatic reactions were conducted at 30° C. for 40 minutes. The 50 μl reaction mixture contains 40 mM Tris, pH 7.4, 10 mM MgCl2, 0.1 mg/ml BSA, 1 mM DTT, 0.2 mg/ml substrate peptide, 10 μM ATP and ALK (Table 2.3.1). After the enzymatic reaction, 50 μl of Kinase-Glo Plus Luminescence kinase assay solution (Promega) was added to each reaction and incubate the plate for 5 minutes at room temperature. Luminescence signal was measured using a BioTek Synergy 2 microplate reader. ALK activity assays were performed in duplicate at each concentration. The luminescence data were analyzed using the computer software, Graphpad Prism. The difference between luminescence intensities in the absence of ALK (Lut) and in the presence of ALK (Luc) was defined as 100% activity (Lut−Luc). Using luminescence signal (Lu) in the presence of the compound, % activity was calculated as % activity={(Lut−Lu)/(Lut−Luc)}×100%, where Lu=the luminescence intensity in the presence of the compound (all percent activities below zero were shown zero in the table). The values of % activity versus a series of compound concentrations were then plotted using non-linear regression analysis of Sigmoidal dose-response curve generated with the equation Y=B+(T−B)/1+10^((Log EC50−X)×Hill Slope), where Y=percent activity, B=minimum percent activity, T=maximum percent activity, X=logarithm of compound and Hill Slope=slope factor or Hill coefficient. The IC50 value was determined by the concentration causing a half-maximal percent activity.

Series [1] can be described thus: PK (pharmacokinetic) study in rat, cassette dosing. It counts as in vivo. The conditions noted are these: male, Wistar, plasma. Here is the method:
A representative protocol for the PK (pharmacokinetic) is as followed: Animals used were Wistar rat, male and weight about 300-359 grams. Compound 21 and 22 were given either IV or oral to the same animals by cassette dosing. The dose for each compound is 1 mg/kg (volume 5 ml/kg) IV and 2 mg/kg (volume 10 ml/kg) oral. The formulation for IV was in PBS, the pH is adjusted by dilute HCl until compounds were totally dissolved. 0.5% Na-CMC suspension was used for the oral formulation. Sample collection: for IV route, plasma sample were collected at the time point 0.083, 0.25, 0.5, 1, 1.5, 2, 4, 6, 8, 12, 24 h. For oral route, plasma sample were collected at the time point 0.167, 0.33, 0.5, 1, 2, 4, 6, 8, 12, 24 h. Analysis: LC-MS/MS is used to calculate PK parameters: t1/2, tmax, Cmax, Vss and AUC etc.

ALK kinase, sequence (Q9UM73 19-1620): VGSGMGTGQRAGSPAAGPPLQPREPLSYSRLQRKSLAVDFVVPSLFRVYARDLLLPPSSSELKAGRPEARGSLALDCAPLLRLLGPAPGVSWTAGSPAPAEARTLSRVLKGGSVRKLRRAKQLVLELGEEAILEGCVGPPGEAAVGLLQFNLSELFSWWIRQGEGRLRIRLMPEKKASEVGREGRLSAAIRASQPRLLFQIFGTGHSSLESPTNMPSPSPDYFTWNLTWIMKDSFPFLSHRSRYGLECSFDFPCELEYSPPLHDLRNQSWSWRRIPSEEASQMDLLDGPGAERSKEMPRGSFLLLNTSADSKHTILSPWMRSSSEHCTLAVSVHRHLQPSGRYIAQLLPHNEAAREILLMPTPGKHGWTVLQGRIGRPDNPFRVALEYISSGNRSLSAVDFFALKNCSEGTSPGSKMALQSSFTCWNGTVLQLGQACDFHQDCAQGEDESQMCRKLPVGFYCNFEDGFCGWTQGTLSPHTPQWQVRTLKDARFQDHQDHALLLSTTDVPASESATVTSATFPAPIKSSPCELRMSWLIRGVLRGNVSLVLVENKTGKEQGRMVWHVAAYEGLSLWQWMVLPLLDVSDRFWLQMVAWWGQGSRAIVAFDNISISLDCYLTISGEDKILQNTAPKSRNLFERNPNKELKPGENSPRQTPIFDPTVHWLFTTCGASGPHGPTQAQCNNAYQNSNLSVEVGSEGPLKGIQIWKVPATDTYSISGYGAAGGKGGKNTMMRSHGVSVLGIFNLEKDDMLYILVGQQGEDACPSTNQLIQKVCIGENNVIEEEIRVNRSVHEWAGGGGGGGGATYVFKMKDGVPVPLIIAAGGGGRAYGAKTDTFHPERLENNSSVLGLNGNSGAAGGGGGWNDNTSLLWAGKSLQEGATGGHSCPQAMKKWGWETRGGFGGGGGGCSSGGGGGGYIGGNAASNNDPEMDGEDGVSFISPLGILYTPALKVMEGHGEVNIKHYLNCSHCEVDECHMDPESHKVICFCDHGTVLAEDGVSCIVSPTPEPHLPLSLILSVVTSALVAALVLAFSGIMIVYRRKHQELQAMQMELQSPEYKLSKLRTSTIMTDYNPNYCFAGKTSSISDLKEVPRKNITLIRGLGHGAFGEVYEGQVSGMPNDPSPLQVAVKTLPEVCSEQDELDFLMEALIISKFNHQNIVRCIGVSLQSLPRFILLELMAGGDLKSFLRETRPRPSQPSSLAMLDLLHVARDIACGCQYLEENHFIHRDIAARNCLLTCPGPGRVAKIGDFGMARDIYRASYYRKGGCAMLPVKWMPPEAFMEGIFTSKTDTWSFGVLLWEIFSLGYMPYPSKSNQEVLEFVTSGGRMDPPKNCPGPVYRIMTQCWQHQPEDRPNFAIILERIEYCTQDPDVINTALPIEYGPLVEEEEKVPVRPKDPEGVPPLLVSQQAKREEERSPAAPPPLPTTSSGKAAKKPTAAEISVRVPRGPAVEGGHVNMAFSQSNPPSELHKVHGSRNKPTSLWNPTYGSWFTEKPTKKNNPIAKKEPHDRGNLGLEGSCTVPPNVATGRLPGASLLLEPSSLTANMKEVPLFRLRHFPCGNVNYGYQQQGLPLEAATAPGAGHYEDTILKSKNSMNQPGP

In the case of `[2H]C([2H])([2H])C([2H])([2H])N1CCC(n2cc(-c3cnc(N)c(O[C@H](C)c4c(Cl)ccc(F)c4Cl)c3)cn2)CC1` [Compound 22, (R)-3-(1-(2,6-dichloro-3-fluorophenyl)ethoxy)-5-(1-(1-d5-ethylpiperidin-4-yl)-1H-pyrazol-4-yl)pyridin-2-amine], the IC50 at ALK kinase (ALK kinase assay, read-out: ALK (IC50 grading)) was not above 100 nM. The IC50 at ALK kinase (read-out: IC50 in the ALK kinase assay) amounted to 1.35 nM. In series [1] (IV cassette 1 mg/kg), this molecule yielded an area under the curve AUC(0-inf) of 337 ng·h/mL, an AUC(0-t) of 336 ng·h/mL, a Cmax of 259 ng/mL and a mean residence time (MRT) of 3.11 h. Moreover, in series [1] (IV cassette 1 mg/kg), the time of peak concentration (Tmax) worked out at 0.083 h, the clearance is 49.5 mL/min/kg and the half-life is 3.04 h. In series [1] (oral cassette 2 mg/kg), the AUC(0-inf) turned out to be 146 ng·h/mL, the AUC(0-t) worked out at 140 ng·h/mL, the Cmax stood at 21 ng/mL and the MRT was 5.28 h. Besides, in series [1] (oral cassette 2 mg/kg), the Tmax worked out at 4 h and the half-life is 3.1 h. In series [1] (oral cassette 2 mg/kg vs IV 1 mg/kg, read-out: F (bioavailability)), the bioavailability is 20.8%.
